The values below come from patent US6610835B1, “Sphingolipid derivatives and their methods of use” (Emory University, priority 1998, dated 2003).

One series deals with C3H 10T1/2 cells. The following applies: cited from earlier work; for promotion of transformed foci by phorbol esters: levels that affected protein kinase C but not noticeably cytotoxic.
The subject of a further series is HT-29 cells. Nature of the series: MTT assay, induction of cell death by sphingolipids. Type of series: cell-based, human. Here is the method: The activity of sphingosine, sphinganine and 1-deoxy-5-hydroxy-sphinganine in a human colon cancer cell line was investigated. The structures of the tested compounds appear below. [drawing 4]
An MTT assay was used to determine the cytotoxicity of the compounds shown above. Only cells with intact mitochondria are able to form formazane crystals, whereas late apoptotic and necrotic cells are not. The optical density of formazane crystals is used to infer cell viability. A 15 μM treatment of 1-deoxy-5-hydroxy-sphinganine results in nearly 100% cell death in HT-29 cells after 24 hours.

The test system of series [1] is renal bladder and colon cancer cell lines. The conditions noted are these: cited from earlier work.
The subject of series [2] is aberrant colonic crypts induced by DMH. The conditions noted are these: diet supplemented with 0.05% sphingomyelin, analyzed on week 7; cited from earlier work.
For series [3] the following is noted: in vivo; cited from earlier work.
Another series deals with DMH-induced tumors. The following applies: cited from earlier work.
The conditions of series [4]: mouse, in vivo; cited from earlier work.
Series [5] deals with T1, β-glucuronidase from E. coli (Escherichia coli, UniProt P05804).
T1 construct: purchased Sigma
T1 sequence (P05804 whole entry): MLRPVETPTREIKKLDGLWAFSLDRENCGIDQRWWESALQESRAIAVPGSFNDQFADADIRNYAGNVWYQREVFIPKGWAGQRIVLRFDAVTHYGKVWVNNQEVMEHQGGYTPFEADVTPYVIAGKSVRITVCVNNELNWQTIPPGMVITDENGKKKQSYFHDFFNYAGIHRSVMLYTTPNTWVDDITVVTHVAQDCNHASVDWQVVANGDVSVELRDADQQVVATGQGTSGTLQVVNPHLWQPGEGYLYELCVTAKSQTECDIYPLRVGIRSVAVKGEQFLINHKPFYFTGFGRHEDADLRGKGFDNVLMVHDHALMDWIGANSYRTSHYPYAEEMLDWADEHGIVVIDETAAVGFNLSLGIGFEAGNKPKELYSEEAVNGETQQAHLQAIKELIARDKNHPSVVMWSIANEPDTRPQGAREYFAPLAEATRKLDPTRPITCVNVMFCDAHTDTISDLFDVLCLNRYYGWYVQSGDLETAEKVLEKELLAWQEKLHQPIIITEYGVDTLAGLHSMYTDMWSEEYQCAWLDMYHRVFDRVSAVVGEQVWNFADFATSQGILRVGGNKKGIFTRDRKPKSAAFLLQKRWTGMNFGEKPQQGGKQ
Nature of the series: Cleavage of GluAcCer by bacterial β-glucuronidase. In kind it is biochemical. The conditions noted are these: β-glucuronidase from E. coli (Sigma), supplier's instructions. From the text:
Glucornoylceramide (GluAcCer), a ceramide with a glucuronic acid headgroup was synthesized according to the methods described above. The metabolism of GluAcCer requires β-glucuronidase, an enzyme found in bacteria but not in human intestinal cells. Accordingly, dietary GluAcCer cannot be digested in the small intestine but should be hydrolyzed in the colon by the colonic microflora.

A further series concerns colonic crypts. Put plainly: Cell proliferation in colonic crypts of DMH-treated mice fed GluAcCer. Type of series: in vivo. Here is the method:
Female CF1 mice were injected with DMH to initiate colonic tumors. […] The control group was fed the AIN 76A diet without supplements (one group without DMH and the other with DMH only). After four weeks, the mice were killed, the colons excised, and evaluated for the appearance of ACF.
The effect of GluAcCer on cell proliferation was also investigated since a deregulation of cell growth is observed in carcinogenesis. […] Therefore, feeding synthetic GluAcCer to mice suppresses the formation of early stages in colon carcinogenesis, possibly by restricting the proliferation to the lower half of the colonic crypt.

For series [6], the system named is ACF (DMH-initiated colonic tumors). Put plainly: Chemically (DMH) induced colon cancer model, aberrant crypt foci (ACF) after dietary supplementation. The conditions noted are these: for ACF: four weeks after DMH, control 30.2±4.19. In kind it is in vivo, Female CF1 mice. As for the experimental part: Female CF1 mice were injected with DMH to initiate colonic tumors. After initiation, the mice were fed and AIN 76A diet supplemented with GluAcCer (0.025 or 0.1% of the diet). The control group was fed the AIN 76A diet without supplements (one group without DMH and the other with DMH only). After four weeks, the mice were killed, the colons excised, and evaluated for the appearance of ACF.

Turning to `CCCCCCCCCCCCCCC[C@@H](O)[C@@H](N)CO` [sphinganine], in the series with C3H 10T1/2 cells, the “number of transformed foci in cells treated with just γ-irradiation” value is given as “reduced the number of transformed foci” and the “promotion of transformed foci by phorbol esters” value is on record as “completely blocked”. Also, the “treatment required to produce comparable (nearly 100%) cell death” value in the series with HT-29 cells (after 24 hours) is 50 µM.
In the case of `CCCCCCCCCCCCCC(O)CC(O)C(C)N` (stereo not drawn) [1-deoxy-5-hydroxy-sphinganine], the “potency in inducing cell death relative to sphingosine and sphinganine” value in the series with HT-29 cells is “at least twice as potent”. In addition, in the series on HT-29 cells (15 μM treatment, after 24 hours), the cell death is listed as about 100%.
Turning to `CCCCCCCCCCCCC/C=C/C(O)C(N)CO` [sphingosine, D-erythro-4-trans-sphinganine], in the series with C3H 10T1/2 cells, the “number of transformed foci in cells treated with just γ-irradiation” value is recorded as “reduced the number of transformed foci” and the “promotion of transformed foci by phorbol esters” value was “completely blocked”. Also, in the series with HT-29 cells (after 24 hours), the “treatment required to produce comparable (nearly 100%) cell death” value came to 50 µM.
In the case of Fumonisin B, in [1], the cytostatic activity result is “has cytostatic activity”.
Turning to sphingomyelin, in series [2], the “reduction in the number of aberrant colonic crypts induced by DMH” value is on record as 50%. For the same molecule, in [3], the “peak absorption of radiolabel after feeding” value is 10 h; the “radiolabel found in feces, mainly as ceramide” value is 21-46%; the “radiolabel recovered in lymph” value is “up to 30%”. In addition, the “tumor incidence versus control” value in the series with DMH-induced tumors (milk sphingomyelin pilot and buttermilk sphingomyelin experiment) was “about half”. In the series on DMH-induced tumors (second study with buttermilk sphingomyelin, histological analyses), the “tumor type (adenomas versus adenocarcinomas)” value is recorded as “more adenomas versus adenocarcinomas than for the control”. For the same molecule, the “number of overall tumors” value in the series with DMH-induced tumors (second study with buttermilk sphingomyelin) is “no reduction”. Besides, in [4], the “label appeared in liver sphingolipids” value is “About 5%” and the “radiolabel progressed into the colon” value is 3-5%.
In the case of `CCCCCCCCCCCCC/C=C/[C@@H](O)[C@H](CO[C@@H]1O[C@H](C(=O)O)[C@@H](O)[C@H](O)[C@H]1O)NC(=O)CCCCCCCCCCCCCCC` [GluAcCer, 1-O-B-D-Glucuronoyl-2N-palmitoylsphingosine], the “ability to be cleaved by bacterial enzymes” value in series [5] is on record as “cleaved by bacterial enzymes”. The “proliferation in the lower half of the colonic crypts” value in the series on colonic crypts (GluAcCer (FIG. 13b)) is reported as “reduced the proliferation”. For the same molecule, the “proliferation in the upper half of the crypts” value in the series with colonic crypts (both concentrations of GluAcCer in the diet (FIG. 13a)) is recorded as “reduced proliferation in the upper half of the crypts in a dose dependent manner”. Also, the ACF amounted to 21 ±2.94 in series [6] (0.025% GluAcCer in AIN 76A diet) and 19.2±3.09 in series [6] (0.1% GluAcCer in AIN 76A diet). In [6] (0.025 or 0.1% of the diet, versus control (FIG. 12)), the “inhibition of ACF formation” value is listed as 20-30%.
